Measurements taken from US20160061841A1, “NRF2-BASED CANCER TREATMENT AND DETECTION METHODS AND USES” (CanBas Co., Ltd., priority 2014, published 2016).
Where no end group is shown, it is not given here. [ ]: non-standard residue; d: D form. dPhe(F5) = N[C@H](Cc1c(F)c(F)c(F)c(F)c1F)C(=O)O; dBpa = N[C@H](Cc1ccc(C(=O)c2ccccc2)cc1)C(=O)O; dCha = N[C@H](CC1CCCCC1)C(=O)O

What was measured:
A549 = test: CDDP-enhancing activity of CBP501, cell cycle distribution by flow-cytometry; assay type: cell-based, Human; conditions: 1 h co-exposure with CDDP, shift of subG1 or G2/M dose-response curve
Experimental: (§1) Cell culture and reagents. Human NSCLC cell lines were cultured in a variety of media, each supplemented with 10% fetal bovine serum (Invitrogen, San Diego, CA) at 37° C. with 5% CO2/air. The media used was RPMI1640 (Sigma-Aldrich, St. Louis, Mo.) for NCI-H1755, NCI-H2030, NCI-H1437, NCI-H2122, NCI-H2172, NCI-H2228, NCI-H1563, NCI-H1944, NCI-H1993, NCI-H1734, NCI-H1568, NCI-H2444, NCI-H2291, NCI-H2347, NCI-H1838, NCI-H1299, HCC827, NCI-H1975, NCI-H1155, NCI-H522 and NCI-H1703; RPMI1640 supplemented with 2mM L-glutamine (Invitrogen) for NCI-H727; RPMI1640 supplemented with 4.5 g/L D-glucose (Sigma-Aldrich), 10 mM HEPES (Sigma-Aldrich) and 1 mM sodium pyruvate (Sigma-Aldrich) for NCI-H358, NCI-H520, NCI-H23, NCI-H647 and NCI-H838; Ham's F12K (Sigma-Aldrich) for A549. CDDP was purchased from Sigma-Aldrich. Sulforaphane (SFN) was purchased from Sigma-Aldrich. All NSCLC cell lines were purchased from ATCC and STR analysis had been performed by ATCC to authenticate the identity of each cell line. All cell lines were used within three months after thawing.
(§2) Cell cycle analysis. Cells were plated in 24-well plates and incubated for 24 hours. The cells were treated with or without CDDP plus or minus CBP501 at the indicated concentration for the indicated times. The cells were harvested and stained with Krishan's solution (0.1% sodium citrate, 50 μg/ml propidium iodide, 20 μg/ml RNase A, 0.5% NP-40). Stained cells were analyzed by FACSCalibur (Becton Dickinson, Franklin Lakes, N.J.) using CELLQuest software (Becton Dickinson).
(§3) Here, the change in the cell cycle distribution, as indicated by flow-cytometry, was used to estimate the sensitivity of NSCLC cell lines to CBP501-enhanced cytotoxicity to CDDP. Such changes were monitored in cells treated with CDDP in the presence or absence of CBP501. The utility of this analysis for assessing the effectiveness of anti-cancer therapy is based on the absence of functioning G1/S checkpoint regulation in the cell cycle of many types of cancer cells (14). Lack of a functional G1/S checkpoint leads to an accumulation of cancer cells in G2/M phase upon their exposure to DNA-damaging anticancer agents (14, 15).
(§4) To assess the CDDP-enhancing activity of CBP501, one can examine either of two dose-response curves in which the X-axis indicates the dose of CDDP and Y-axis indicates either the number of cells in subG1 or in G2/M. The transition and peak in either dose-response curve will shift to the left in the presence of CBP501 for CBP501-sensitive cells, indicating the enhanced ability of CDDP to change the cell cycle distribution. […] Using this criterion based on CBP501's ability to shift the CDDP-induced subG1 or G2/M dose-response curve, twelve NSCLC cell lines were classified as being either, CBP501-sensitive or CBP501-insensitive. Cell lines that shifted the curve two fold or more were classified as CBP501 sensitive cells and those that shifted the curve less than two fold were classified as CBP501 insensitive (Table 1). Classification of CBP501 sensitivity in NSCLC cell lines.
(§5) Although the expression of Nrf2 or its several downstream transcription targets may possibly predict resistance to CBP501, the general reliability of these predictive markers for CBP501-sensitivity remained to be established. The combination effect of CBP501 and CDDP in sixteen additional NSCLC cell lines, classifying each as CBP501 sensitive or insensitive by the prior criteria was analyzed (Table 2). Classification of CBP501 sensitivity in additional NSCLC cell lines.

HCC827 = test: as above; assay type: cell-based, Human; conditions: 1 h co-exposure with CDDP
Experimental: as §1, §2, §3, §4, §5

NCI-H1155 = test: as above; assay type: cell-based, Human; conditions: 1 h co-exposure with CDDP
Experimental: as §1, §2, §3, §4, §5

NCI-H1299 = test: as above; assay type: cell-based, Human; conditions: 1 h co-exposure with CDDP, shift of subG1 or G2/M dose-response curve
Experimental: as §1, §2, §3, §4, §5

NCI-H1563 = test: as above; assay type: cell-based, Human; conditions: 1 h co-exposure with CDDP
Experimental: as §1, §2, §3, §4, §5

NCI-H1734 = test: as above; assay type: cell-based, Human; conditions: 1 h co-exposure with CDDP
Experimental: as §1, §2, §3, §4, §5

NCI-H1755 = test: as above; assay type: cell-based, Human; conditions: 1 h co-exposure with CDDP
Experimental: as §1, §2, §3, §4, §5

NCI-H1975 = test: as above; assay type: cell-based, Human; conditions: 1 h co-exposure with CDDP
Experimental: as §1, §2, §3, §4, §5

NCI-H1993 = test: as above; assay type: cell-based, Human; conditions: 1 h co-exposure with CDDP, shift of subG1 or G2/M dose-response curve
Experimental: as §1, §2, §3, §4, §5

NCI-H23 = test: as above; assay type: cell-based, Human; conditions: 1 h co-exposure with CDDP, shift of subG1 or G2/M dose-response curve
Experimental: as §1, §2, §3, §4, §5

NCI-H358 = test: as above; assay type: cell-based, Human; conditions: 1 h co-exposure with CDDP, shift of subG1 or G2/M dose-response curve
Experimental: as §1, §2, §3, §4, §5

NCI-H520 = test: as above; assay type: cell-based, Human; conditions: 1 h co-exposure with CDDP
Experimental: as §1, §2, §3, §4, §5

NCI-H522 = test: as above; assay type: cell-based, Human; conditions: 1 h co-exposure with CDDP
Experimental: as §1, §2, §3, §4, §5

NCI-H647 = test: as above; assay type: cell-based, Human; conditions: 1 h co-exposure with CDDP, shift of subG1 or G2/M dose-response curve
Experimental: as §1, §2, §3, §4, §5

NCI-H727 = test: as above; assay type: cell-based, Human; conditions: 1 h co-exposure with CDDP
Experimental: as §1, §2, §3, §4, §5

[1] = tested on: platinum-resistant ovarian carcinoma and MPM; conditions: cited from earlier work
[2] = tested on: multiple kinases that phosphorylate CDC25C at Ser216; conditions: cited from earlier work
14-3-3 protein = conditions: cited from earlier work
cancer cells [3] = conditions: cited from earlier work
cancer cells [4] = conditions: shorter exposure and lower doses of CBP501 than required for G2 checkpoint abrogation; cited from earlier work
[5] = shift of subG1 or G2/M dose-response curve

(d-Bpa)(d-Ser)(d-Trp)(d-Ser)(d-Phe-2,3,4,5,6-F)(d-Cha)(d-Arg)(d-Arg)(d-Arg)(d-Gln)(d-Arg)(d-Arg) ([dBpa][dS][dW][dS][dPhe(F5)][dCha][dR][dR][dR][dQ][dR][dR]) [CBP501, anti-cancer drug candidate; calmodulin modulation and G2 checkpoint abrogation]
Folds increase of CDDP effect by CBP501 (A549): 2 fold | Definition of CBP501 sensitivity (HCC827): Sensitive (Cell lines that shifted the curve two fold or more were classified as CBP501 sensitive cells) | Folds increase of CDDP effect by CBP501 (HCC827; [5]): 4 fold | Definition of CBP501 sensitivity (NCI-H1155): Insensitive (those that shifted the curve less than two fold were classified as CBP501 insensitive) | Folds increase of CDDP effect by CBP501 (NCI-H1155; [5]): 1.5 fold | Folds increase of CDDP effect by CBP501 (NCI-H1299): 8 fold | Definition of CBP501 sensitivity (NCI-H1563): Insensitive (those that shifted the curve less than two fold were classified as CBP501 insensitive) | Folds increase of CDDP effect by CBP501 (NCI-H1563; [5]): 1.5 fold | Definition of CBP501 sensitivity (NCI-H1734): Sensitive (Cell lines that shifted the curve two fold or more were classified as CBP501 sensitive cells) | Folds increase of CDDP effect by CBP501 (NCI-H1734; [5]): 2 fold | Definition of CBP501 sensitivity (NCI-H1755): Insensitive (those that shifted the curve less than two fold were classified as CBP501 insensitive) | Folds increase of CDDP effect by CBP501 (NCI-H1755; [5]): 1 fold | Definition of CBP501 sensitivity (NCI-H1975): Sensitive (Cell lines that shifted the curve two fold or more were classified as CBP501 sensitive cells) | Folds increase of CDDP effect by CBP501 (NCI-H1975; [5]): 2 fold | Folds increase of CDDP effect by CBP501 (NCI-H1993): 2 fold | Folds increase of CDDP effect by CBP501 (NCI-H23): 4 fold | Folds increase of CDDP effect by CBP501 (NCI-H358): 1 fold | Definition of CBP501 sensitivity (NCI-H520): Sensitive (Cell lines that shifted the curve two fold or more were classified as CBP501 sensitive cells) | Folds increase of CDDP effect by CBP501 (NCI-H520; [5]): 2 fold | Definition of CBP501 sensitivity (NCI-H522): Sensitive (Cell lines that shifted the curve two fold or more were classified as CBP501 sensitive cells) | Folds increase of CDDP effect by CBP501 (NCI-H522; [5]): 2 fold | Folds increase of CDDP effect by CBP501 (NCI-H647): 1.5 fold | Definition of CBP501 sensitivity (NCI-H727): Insensitive (those that shifted the curve less than two fold were classified as CBP501 insensitive) | Folds increase of CDDP effect by CBP501 (NCI-H727; [5]): 1 fold | Primary endpoint for efficacy ([1]; MPM): primary endpoint for efficacy was achieved | Clinical activity ([1]; combination of CDDP plus CBP501, patients with platinum-resistant ovarian carcinoma and MPM): showed evidence of clinical activity | Inhibition of kinases that phosphorylate CDC25C at Ser216 [2]: inhibits multiple kinases that phosphorylate CDC25C at Ser216 | Binding to 14-3-3 protein (14-3-3 protein): binds directly to 14-3-3 protein | Phosphorylation of CDC25C at Ser216 (cancer cells [3]): attenuates phosphorylation of CDC25C at Ser216 | Accumulation of cancer cells at G2/M (cancer cells [3]; lengthy combined exposure with CDDP or bleomycin (BLM)): reduces the accumulation of cancer cells at G2/M | Uptake of CDDP into cancer cells (cancer cells [4]): increased uptake of CDDP into cancer cells
